biological target: hKIF18A (1-374) (Homo sapiens (Human), UniProt Q8NI77); test: Inhibition of KIF18A microtubule-dependent ATPase activity (ADP-Glo); format: biochemical; settings: 4 nM hKIF18A (1-374)
Protocol: Test compounds were plated in a 3× dilution scheme in a 384-well plate. Assay buffer: 80 mM PIPES (pH 6.9), 1 mM MgCl2, 75 mM KCl, 1 mM EGTA, 1 mM DTT, 0.01% BSA, 0.005% Tween-20, 1 μM Taxol in H2O. […] After incubation at room temperature for 30 min, 2.5 μL of microtubule mix was added [0.2 mg/mL pre-formed microtubules, 2.0 mM ATP in assay buffer], the plate was centrifuged for 30 s and then incubated at 28° C. for 60 min. 5 μL of Promega® ADP-Glo Max R1 was added, the plate was centrifuged for 30 s, and the mixture incubated for 4 h at room temperature. 10 μL of Promega® ADP-Glo Max R2 was added, the plate centrifuged for 30 s, and incubated for 60 min at room temperature. Luminescence was measured with an Envision plate reader, and % Inhibition was calculated for each well as: ([max−min]−[test−min])/[max−min]. IC50 values were calculated from concentration vs. % Inhibition data via a four-parameter variable slope model.

Chain of hKIF18A (1-374) (Q8NI77 1-374): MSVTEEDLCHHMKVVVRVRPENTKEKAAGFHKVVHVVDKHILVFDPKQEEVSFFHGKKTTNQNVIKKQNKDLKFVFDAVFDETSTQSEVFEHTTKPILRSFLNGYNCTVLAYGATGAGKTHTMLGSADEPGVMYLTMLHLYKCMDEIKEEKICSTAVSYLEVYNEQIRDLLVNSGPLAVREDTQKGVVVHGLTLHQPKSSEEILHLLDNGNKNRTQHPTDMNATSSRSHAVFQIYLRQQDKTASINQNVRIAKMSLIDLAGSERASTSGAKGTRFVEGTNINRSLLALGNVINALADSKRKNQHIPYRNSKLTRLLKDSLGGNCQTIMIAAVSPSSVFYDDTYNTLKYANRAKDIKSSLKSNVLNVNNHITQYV

Compound | IC50 [nM]
CS(=O)(=O)Nc1ccc(-n2cc(-c3cccc(N4CCC(F)(F)CC4)n3)nn2)c(N2CCCC2)c1 [Compound 16, N-(4-(4-(6-(4,4-difluoropiperidin-1-yl)pyridin-2-yl)-1H-1,2,3-triazol-1-yl)-3-(pyrrolidin-1-yl)phenyl)methanesulfonamide] | 1100
CS(=O)(=O)Nc1ccc(-n2cc(-c3cccc(N4CCC(F)(F)CC4)n3)nn2)c(N2CCCCCC2)c1 [Compound 52, N-(3-(azepan-1-yl)-4-(4-(6-(4,4-difluoropiperidin-1-yl)pyridin-2-yl)-1H-1,2,3-triazol-1-yl)phenyl)methanesulfonamide] | 18
CS(=O)(=O)Nc1ccc(-n2cc(-c3cccc(N4CCC(F)(F)CC4)n3)cn2)c(N2CCC3(CC2)CC3)c1 [Compound 17, N-(4-(4-(6-(4,4-difluoropiperidin-1-yl)pyridin-2-yl)-1H-pyrazol-1-yl)-3-(6-azaspiro[2.5]octan-6-yl)phenyl)methanesulfonamide] | 29
Cc1cc(-c2cn(-c3ccc(NS(=O)(=O)CCO)cc3N3CCCCCC3)nn2)nc(N2CCC(F)(F)CC2)n1 [Compound 75, N-(3-(azepan-1-yl)-4-(4-(2-(4,4-difluoropiperidin-1-yl)-6-methylpyrimidin-4-yl)-1H-1,2,3-triazol-1-yl)phenyl)-2-hydroxyethane-1-sulfonamide] | 7.1
CC1CCN(c2cc(NS(C)(=O)=O)ccc2-n2cc(-c3cccc(N4CCC(F)(F)CC4)n3)nn2)CC1 [Compound 18, N-(4-(4-(6-(4,4-difluoropiperidin-1-yl)pyridin-2-yl)-1H-1,2,3-triazol-1-yl)-3-(4-methylpiperidin-1-yl)phenyl)methanesulfonamide] | 8.7

Other lines, results leading:

IC50 [nM] | Compound
150 | CS(=O)(=O)Nc1ccc(-n2cc(-c3nc(N4CCC(F)(F)CC4)ns3)nn2)c(N2CCC3(CC2)CC3)c1 [Compound 135, N-(4-(4-(3-(4,4-difluoropiperidin-1-yl)-1,2,4-thiadiazol-5-yl)-1H-1,2,3-triazol-1-yl)-3-(6-azaspiro[2.5]octan-6-yl)phenyl)methanesulfonamide]
2800 | O=S(=O)(CCO)Nc1ccc(-c2cn(-c3cnn(C4CCC(F)(F)CC4)c3)nn2)c(N2CCC3(CC2)CC3)c1 [Compound 166, N-(4-(1-(1-(4,4-difluorocyclohexyl)-1H-pyrazol-4-yl)-1H-1,2,3-triazol-4-yl)-3-(6-azaspiro[2.5]octan-6-yl)phenyl)-2-hydroxyethane-1-sulfonamide]
17 | O=S(=O)(CCO)Nc1ccc(-n2cc(-c3cc(F)cc(N4CCC(F)(F)CC4)n3)nn2)c(N2CCC3(CC2)CC3)c1 [Compound 78, N-(4-(4-(6-(4,4-difluoropiperidin-1-yl)-4-fluoropyridin-2-yl)-1H-1,2,3-triazol-1-yl)-3-(6-azaspiro[2.5]octan-6-yl)phenyl)-2-hydroxyethane-1-sulfonamide]
6 | O=S(=O)(CCO)Nc1ccc(-n2cc(-c3cncc(OC4CCCC4)n3)nn2)c(N2CCC3(CC2)CC3)c1 [Compound 150, N-(4-(4-(6-(cyclpentyloxy)pyrazin-2-yl)-1H-1,2,3-triazol-1-yl)-3-(6-azaspiro[2.5]octan-6-yl)phenyl)-2-hydroxyethane-1-sulfonamide]
15 | Cc1cc(-c2cn(-c3ccc(NS(=O)(=O)CCO)cc3N3CCC(C(F)F)CC3)nn2)nc(N2CCC(F)(F)CC2)c1 [Compound 104, N-(3-(4-(difluoromethyl)piperidin-1-yl)-4-(4-(6-(4,4-difluoropiperidin-1-yl)-4-methylpyridin-2-yl)-1H-1,2,3-triazol-1-yl)phenyl)-2-hydroxyethane-1-sulfonamide]
20 | Cc1cc(-c2cn(-c3ccc(NS(=O)(=O)CCO)cc3N3CCC4(CC3)CC4)nn2)nc(N2CCC(C(F)F)C2)n1 (centres unmarked) [Compound 103, N-(4-(4-(2-(3-(difluoromethyl)pyrrolidin-1-yl)-6-methylpyrimidin-4-yl)-1H-1,2,3-triazol-1-yl)-3-(6-azaspiro[2.5]octan-6-yl)phenyl)-2-hydroxyethane-1-sulfonamide]

Reference: US20230382889A1 (Volastra Therapeutics, Inc., priority 2022, published 2023)
